Where a name gives a salt, the structure may show the parent alone.
target: SSTR5 (Homo sapiens (Human), UniProt P35346); assay: SSTR5 binding assay; conditions: CHO-K1 membranes expressing cloned human SSTR5
Method in brief: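 Competition binding on membranes from CHO-K1 cells stably expressing cloned human receptor, using radiolabeled somatostatin in 50 mM Tris-HCl pH 7.8 with EGTA, MgCl2 and protease inhibitors. Unlabeled compounds tested from 0.01 nM to 10,000 nM.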

Chain of SSTR5 (P35346 whole entry): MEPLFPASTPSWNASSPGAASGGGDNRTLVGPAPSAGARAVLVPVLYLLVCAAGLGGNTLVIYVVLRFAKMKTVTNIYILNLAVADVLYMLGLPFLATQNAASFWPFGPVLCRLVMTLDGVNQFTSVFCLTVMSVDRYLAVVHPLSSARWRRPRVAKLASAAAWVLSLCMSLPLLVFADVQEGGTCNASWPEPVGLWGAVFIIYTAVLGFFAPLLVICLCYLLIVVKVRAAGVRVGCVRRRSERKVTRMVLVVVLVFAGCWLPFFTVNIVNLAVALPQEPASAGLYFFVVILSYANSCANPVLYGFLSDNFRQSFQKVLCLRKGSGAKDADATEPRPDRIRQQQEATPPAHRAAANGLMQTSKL

Compared with CCOc1cc(CN2CCC3(CC2)CN(c2ccc(O)nc2)C(=O)O3)cc(OCC)c1-c1ccc(F)cc1 [Example 3-13, 8-[(2,6-Diethoxy-4-fluorobiphenyl-4-yl)methyl]-3-(6-hydroxypyridin-3-yl)-1-oxa-3,8-diazaspiro[4.5]decan-2-one, TFA salt], CCOc1cc(CN2CCC3(CC2)CN(c2ccc(C(=O)O)c(F)c2)C(=O)O3)cc(OCC)c1-c1ccc(F)cc1 [Example 3-18, 4-{8-[(2,6-Diethoxy-4′-fluorobiphenyl-4-yl)methyl]-2-oxo-1-oxa-3,8-diazaspiro[4.5]dec-3-yl}-2-fluorobenzoic acid, TFA salt] is 3.3-fold lower in IC50: 3.8 nM for the first, 1.15 nM for the second. The second is the more potent here.

Going from COc1ccc2c(c1)c(CN1CCC3(CC1)CN(c1ccc(C(=O)O)cc1)C(=O)O3)cn2C(C)C [Example 6-26, 4-(8-{[5-Methoxy-1-(propan-2-yl)-1H-indol-3-yl]methyl}-2-oxo-1-oxa-3,8-diazaspiro[4.5]dec-3-yl)benzoic acid, TFA salt] to COc1ccc2c(CN3CCC4(CC3)CN(c3ccc(C(=O)O)cc3)C(=O)O4)nn(CC(=O)C(C)(C)C)c2c1 [Example 6-15, 4-(8-{[1-(3,3-Dimethyl-2-oxobutyl)-6-methoxy-1H-indazol-3-yl]methyl}-2-oxo-1-oxa-3,8-diazaspiro[4.5]dec-3-yl)benzoic acid, TFA salt], the IC50 rises from 1.45 nM to 1200 nM (830-fold). The first is the more potent here.

Compared with CC(C)(C)n1cc(CN2CCC3(C2)CN(c2ccc(C(=O)O)cc2)C(=O)O3)c(-c2ccc(F)c(F)c2F)n1 (stereo not drawn) [Example 2-17, 4-(7-{[1-tert-Butyl-3-(2,3,4-trifluorophenyl)-1H-pyrazol-4-yl]methyl}-2-oxo-1-oxa-3,7-diazaspiro[4.4]non-3-yl)benzoic acid, TFA salt], CC(C)n1cc(CN2CCC3(CC2)CN(c2ccc(C(=O)O)cc2)C(=O)O3)c(-c2ccc(F)c(F)c2F)n1 [Example 1-17, 4-(2-Oxo-8-{[1-(propan-2-yl)-3-(2,3,4-trifluorophenyl)-1H-pyrazol-4-yl]methyl}-1-oxa-3,8-diazaspiro[4.5]dec-3-yl)benzoic acid, TFA salt] is 15-fold lower in IC50: 32.7 nM for the first, 2.14 nM for the second.

Compared with CCOc1cc(CN2CCC3(CC2)CN(c2ccc(C(=O)O)cc2)C(=O)O3)c(-c2ccc(F)nc2)cc1C [Example 4-14, 4-{8-[5-Ethoxy-2-(6-fluoropyridin-3-yl)-4-methylbenzyl]-2-oxo-1-oxa-3,8-diazaspiro[4.5]dec-3-yl}benzoic acid, TFA salt], Cc1ccc(-c2cc(C)c(Cl)cc2CN2CCC3(CC2)CN(c2ccc(C(=O)O)cc2)C(=O)O3)cn1 [Example 4-23, 4-{8-[5-Chloro-4-methyl-2-(6-methylpyridin-3-yl)benzyl]-2-oxo-1-oxa-3,8-diazaspiro[4.5]dec-3-yl}benzoic acid, TFA salt] is 5.7-fold higher in IC50: 0.407 nM for the first, 2.3 nM for the second. The first is the more potent here.

O=C(O)c1ccc(N2CC3(CCN(Cc4cn(-c5ccc(F)cc5)nc4-c4ccc(F)cc4)CC3)OC2=O)cc1 [Example 1-20, 4-(8-{[1,3-Bis(4-fluorophenyl)-1H-pyrazol-4-yl]methyl}-2-oxo-1-oxa-3,8-diazaspiro[4.5]dec-3-yl)benzoic acid, TFA salt] and CC(C)(C)Cn1cc(CN2CCC3(CC2)CN(c2ccc(C(=O)O)cc2)C(=O)O3)c(-c2ccc(F)c(Cl)c2)n1 [Example 1-38, 4-(8-{[3-(3-Chloro-4-fluorophenyl)-1-(2,2-dimethylpropyl)-1H-pyrazol-4-yl]methyl}-2-oxo-1-oxa-3,8-diazaspiro[4.5]dec-3-yl)benzoic acid, TFA salt] are within 1.5-fold of each other in IC50: 5.33 nM for the first, 5.29 nM for the second.

Going from O=C(O)c1ccc(N2CC3(CCN(Cc4nn(Cc5ccc(Cl)cc5)cc4-c4cc(F)c(F)cc4F)CC3)OC2=O)cc1 [Example 2-4, 4-(8-{[1-(4-Chlorobenzyl)-4-(2,4,5-trifluorophenyl)-1H-pyrazol-3-yl]methyl}-2-oxo-1-oxa-3,8-diazaspiro[4.5]dec-3-yl)benzoic acid, TFA salt] to O=C(O)c1ccc(N2CC3(CCN(Cc4cnn(-c5ccccc5)c4-c4cc(F)c(F)cc4F)CC3)OC2=O)cc1 [Example 2-7, 4-(2-Oxo-8-{[1-phenyl-5-(2,4,5-trifluorophenyl)-1H-pyrazol-4-yl]methyl}-1-oxa-3,8-diazaspiro[4.5]dec-3-yl)benzoic acid, TFA salt], the IC50 falls from 112 nM to 1.83 nM (61-fold).

Compared with CCOc1ccc(-c2ccc(F)c(F)c2F)c(CN2CCC3(CC2)CN(c2ccc(C(=O)O)c(C)c2)C(=O)O3)c1 [Example 4-13, 4-{8-[(4-Ethoxy-2′,3′,4′-trifluorobiphenyl-2-yl)methyl]-2-oxo-1-oxa-3,8-diazaspiro[4.5]dec-3-yl}-2-methylbenzoic acid, TFA salt], CCOc1ccc(-c2ccc(F)c(F)c2)c(CN2CCCC3(CC2)CN(c2ccc(C(=O)O)cc2)C(=O)O3)c1 (stereo not drawn) [Example 2-13, 4-{8-[(4-Ethoxy-3′,4′-difluorobiphenyl-2-yl)methyl]-2-oxo-1-oxa-3,8-diazaspiro[4.6]undec-3-yl}benzoic acid, TFA salt] is 27-fold higher in IC50: 0.983 nM for the first, 26.1 nM for the second. The first is the more potent here.

First: CCOc1cc(CN2CCC3(CC2)CN(c2ccc(C(C)(C)C(=O)O)cc2)C(=O)O3)cc(OCC)c1-c1ccc(F)cc1 [Example 3-6, 2-(4-{8-[(2,6-Diethoxy-4′-fluorobiphenyl-4-yl)methyl]-2-oxo-1-oxa-3,8-diazaspiro[4.5]dec-3-yl}phenyl)-2-methylpropanoic acid, TFA salt]
Second: Cc1cc(CN2CCC3(CC2)CN(c2ccc(C(=O)O)cc2)C(=O)O3)cc2c1OCCC2(C)C [Example 5-13, 4-{2-Oxo-8-[(4,4,8-trimethyl-3,4-dihydro-2H-chromen-6-yl)methyl]-1-oxa-3,8-diazaspiro[4.5]dec-3-yl}benzoic acid, TFA salt]
The IC50 of the first is 30-fold higher: 9.47 nM for the first, 0.317 nM for the second. The second is the more potent here.

First: O=C(O)c1ccc(N2CC3(CCN(Cc4cc5c(cc4-c4cc(F)c(F)cc4F)CCC5)CC3)OC2=O)cc1 [Example 4-19, 4-(2-Oxo-8-{[6-(2,4,5-trifluorophenyl)-2,3-dihydro-1H-inden-5-yl]methyl}-1-oxa-3,8-diazaspiro[4.5]dec-3-yl)benzoic acid, TFA salt]
Second: CC1(C)CCc2cc(CN3CCC4(CC3)CN(c3ccc(C(=O)O)cc3)C(=O)O4)ccc2O1 [Example 5-12, 4-{2-Oxo-8-[(2,2-dimethyl-3,4-dihydro-2H-chromen-6-yl)methyl]-1-oxa-3,8-diazaspiro[4.5]dec-3-yl}benzoic acid, TFA salt]
The IC50 of the first is 120-fold lower: 0.243 nM for the first, 29.4 nM for the second.

Going from Cc1cc(N2CC3(CCN(Cc4cn(C(C)(C)C)nc4-c4cc(F)c(Cl)cc4F)CC3)OC2=O)ccc1C(=O)O [Example 1-11, 4-(8-{[1-tert-Butyl-3-(4-chloro-2,5-difluorophenyl)-1H-pyrazol-4-yl]methyl}-2-oxo-1-oxa-3,8-diazaspiro[4.5]dec-3-yl)-2-methylbenzoic acid, TFA salt] to CC(C)(C)n1cc(CN2CCC3(CC2)CN(c2ccc(-c4nn[nH]n4)cc2)C(=O)O3)c(-c2cc(F)c(Cl)cc2F)n1 [Example 1-29, 8-{[1-tert-Butyl-3-(4-chloro-2,5-difluorophenyl)-1H-pyrazol-4-yl]methyl}-3-[4-(2H-tetrazol-5-yl)phenyl]-1-oxa-3,8-diazaspiro[4.5]decan-2-one, TFA salt], the IC50 falls from 6.24 nM to 0.582 nM (11-fold). The second is the more potent here.

In the case of COc1ccc(-c2nc(C3CCCCC3)sc2CN2CCC3(CC2)CN(c2ccc(C(=O)O)cc2)C(=O)O3)cc1 [Example 6-28, 4-(8-{[2-Cyclohexyl-4-(4-methoxyphenyl)-1,3-thiazol-5-yl]methyl}-2-oxo-1-oxa-3,8-diazaspiro[4.5]dec-3-yl)benzoic acid, TFA salt], the IC50 is reported as 1.34 nM.

— US8742110B2, “Spiroxazolidinone compounds” (Merck Sharp & Dohme Corp., priority 2010, dated 2014)
